Experiment [1] addresses T1, human HIF-PHD2 (Homo sapiens, UniProt Q9GZT9).
T1 construct: purchased CrystalGenomics Ltd
Put plainly: HIF-PHD inhibition assay (fluorescence polarization), human HIF-PHD2. The experiment is classed as biochemical. To be noted: 2-oxoglutaric acid 3.33 μmol/L. The method, boiled down:
(§1)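 Measured signal: mP difference, after versus before enzyme addition, representing enzyme activity. Detection relied on a FAM-tagged, ACA-spaced fluorescent probe.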
For orientation: In fluorescence polarisation assays a small probe gives low polarisation when free and higher when bound to something large.

The target of experiment [2] is T2, human HIF-PHD3 (Homo sapiens, UniProt Q9H6Z9).
T2 construct: purchased CrystalGenomics Ltd
T2 sequence (Q9H6Z9 whole entry): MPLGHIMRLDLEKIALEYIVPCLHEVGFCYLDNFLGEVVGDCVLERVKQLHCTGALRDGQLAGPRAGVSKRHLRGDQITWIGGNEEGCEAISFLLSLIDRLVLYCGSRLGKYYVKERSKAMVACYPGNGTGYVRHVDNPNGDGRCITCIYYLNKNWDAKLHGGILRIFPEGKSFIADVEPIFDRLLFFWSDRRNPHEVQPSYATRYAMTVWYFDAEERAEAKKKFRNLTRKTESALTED
Description: HIF-PHD inhibition assay (fluorescence polarization), human HIF-PHD3. The experiment is classed as biochemical. Particulars: 2-oxoglutaric acid 166 μmol/L. The essentials: as §1

The structures appear in SMILES notation. pIC50: −log10 of the molar value. Where a name gives a salt, the structure may show the parent alone.

The text below walks through data of patent US20150239889A1, “PYRAZOLOPYRIMIDINE COMPOUND” (MITSUBISHI TANABE PHARMA CORPORATION, priority 2012, published 2015).

The pIC50 is −log10 of the IC50, conventionally taken in molar units. A low value points to a high IC50.

T1 sequence (Q9GZT9 2-426 limits assumed): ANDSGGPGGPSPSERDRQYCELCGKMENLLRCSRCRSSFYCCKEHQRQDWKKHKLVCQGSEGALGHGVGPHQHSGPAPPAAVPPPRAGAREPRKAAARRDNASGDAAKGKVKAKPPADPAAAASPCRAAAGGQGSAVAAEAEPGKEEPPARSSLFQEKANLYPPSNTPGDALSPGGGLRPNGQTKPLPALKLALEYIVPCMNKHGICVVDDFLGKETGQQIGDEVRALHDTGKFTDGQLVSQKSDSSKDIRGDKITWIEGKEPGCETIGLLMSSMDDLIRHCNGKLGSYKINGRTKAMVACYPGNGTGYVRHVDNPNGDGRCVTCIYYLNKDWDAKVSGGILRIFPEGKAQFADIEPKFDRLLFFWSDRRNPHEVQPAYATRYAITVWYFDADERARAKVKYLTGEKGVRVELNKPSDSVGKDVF

`CC(C)C(c1ccc(C(F)(F)F)cc1)n1ncc2nc(-n3cc(C(=O)O)cn3)nc(O)c21` (single isomer, unassigned) [Example 357]: the pIC50 is 7.11 in experiment [1] and 6.41 in experiment [2].

For `O=C(O)c1cnn(-c2nc(O)c3c(cnn3C(c3cc(F)cc(F)c3)C3CC3)n2)c1` (stereo not drawn) [Example 372], the pIC50 in experiment [1] was 7.35; in experiment [2] it was 6.14.

Regarding `O=C(O)c1cnn(-c2nc(O)c3c(cnn3Cc3ccc(N4CCC(C(F)(F)F)CC4)cc3)n2)c1` [Example 422], the pIC50 in experiment [1] was 7.42; in experiment [2], 6.38.

On to `C[C@@H](c1ccc(F)c(F)c1)n1nc(C2CC2)c2nc(-n3cc(C(=O)O)cn3)nc(O)c21` [Example 459], for which the figures for the negative-log IC50 (pIC50) in experiment [1] and in experiment [2] were 6.96 and 6.37, respectively.

As for `Cc1nn(CC2CCC(F)(F)CC2)c2c(O)nc(-n3cc(C(=O)O)cn3)nc12` [Example 475], the pIC50 in experiment [1] is 7.47; in experiment [2], 6.57.

With `Cc1c(OCCCn2ncc3nc(-n4cc(C(=O)O)cn4)nc(O)c32)ccc2c1CCCC2` [Example 190], the pIC50 was 7.85 in experiment [1] and 6.59 in experiment [2].

In the case of `CCC(c1ccc(C)cc1)n1ncc2nc(-n3cc(C(=O)O)cn3)nc(O)c21` (single isomer, unassigned) [Example 329], the pIC50 was 6.92 in experiment [1] and 6.23 in experiment [2].

As to `CC(C)C[C@H](C)n1ncc2nc(-n3cc(C(=O)O)cn3)nc(O)c21` [Example 496], the figures for the pIC50 in experiment [1] and in experiment [2] were 7.39 and 6.28, respectively.

`Cn1ncc2nc(-n3cc(C(=O)O)cn3)nc(O)c21` [Example 485]: the pIC50 in experiment [1] was 6.85; in experiment [2] it was less than 5.52.

With `O=C(O)c1cnn(-c2nc(O)c3c(cnn3[C@H]3CCc4ccccc43)n2)c1` [Example 397], the pIC50 in experiment [1] was 7.34; in experiment [2], 6.14.

As for `C[C@@H](c1ccc(OC(F)(F)F)c(F)c1)n1ncc2nc(-n3cc(C(=O)O)cn3)nc(O)c21` [Example 317], the values for the pIC50 in experiment [1] and in experiment [2] were 7.72 and 6.28, respectively.

Consider `Cc1nn([C@@H](C)c2cccc(F)c2)c2c(O)nc(-n3cc(C(=O)O)cn3)nc12` [Example 449], for which the pIC50 in experiment [1] was less than 6.52; in experiment [2] it was 5.92.

As for `CC(C)C(c1ccc(F)cc1)n1ncc2nc(-n3cc(C(=O)O)cn3)nc(O)c21` (stereo not drawn) [Example 354], the pIC50 in experiment [1] is 6.85; in experiment [2] it was 6.17.

On to `C[C@H](c1ccc(C(F)(F)F)c(F)c1)n1ncc2nc(-n3cc(C(=O)O)cn3)nc(O)c21` [Example 280], for which the pIC50 in experiment [1] was 7.21; in experiment [2], 6.07.

Take `CC[C@H]1CC[C@H](n2nc(F)c3nc(-n4cc(C(=O)O)cn4)nc(O)c32)CC1` [Example 480]: the pIC50 in experiment [1] is 7.33; in experiment [2], 6.17.

Consider `O=C(O)c1cnn(-c2nc(O)c3c(cnn3C3CCN(c4ccc(C(F)(F)F)cc4)CC3)n2)c1` [Example 436], for which the negative logarithm of the IC50 (pIC50) was 8.00 in experiment [1] and 6.48 in experiment [2].

In the case of `C[C@@H](c1cc(F)cc(C(F)(F)F)c1)n1ncc2nc(-n3cc(C(=O)O)cn3)nc(O)c21` [Example 274], the pIC50 was 7.42 in experiment [1] and 6.42 in experiment [2].

As to `O=C(O)c1cnn(-c2nc(O)c3c(cnn3C[C@H]3CCN(c4ccc(C(F)(F)F)cc4)C3)n2)c1` [Example 427], the values for the pIC50 in experiment [1] and in experiment [2] were 7.60 and 6.51, respectively.

In the case of `Cc1cc(-c2ccccc2F)ccc1Cn1ncc2nc(-n3cc(C(=O)O)cn3)nc(O)c21` [Example 88], the pIC50 in experiment [1] was 8.07; in experiment [2], 7.36.

Consider `O=C(O)c1cnn(-c2nc(O)c3c(cnn3C3CCCCCC3)n2)c1` [Example 393], for which the pIC50 in experiment [1] is 7.39; in experiment [2], 6.51.

Consider `Cn1nc(C2CCCCC2)c2nc(-n3cc(C(=O)O)cn3)nc(O)c21` [Example 501], for which the pIC50 in experiment [1] was less than 6.52; in experiment [2], less than 5.52.

For the compound `CC(c1cc(Cl)c(Cl)s1)n1ncc2nc(-n3cc(C(=O)O)cn3)nc(O)c21` (single isomer, unassigned) [Example 320], the pIC50 in experiment [1] is 7.74; in experiment [2], 6.32.

As to `C[C@H]1CC[C@H](n2ncc3nc(-n4cc(C(=O)O)cn4)nc(O)c32)CC1` [Example 384], the pIC50 in experiment [1] was 7.22; in experiment [2] it was 6.30.

As to `CC[C@@H](c1ccc(Cl)c(Cl)c1)n1ncc2nc(-n3cc(C(=O)O)cn3)nc(O)c21` [Example 336], the pIC50 in experiment [1] is 7.64; in experiment [2], 6.77.

Turning to `Cc1cc(F)cc(C(C)n2ncc3nc(-n4cc(C(=O)O)cn4)nc(O)c32)c1` (single isomer, unassigned) [Example 300], the pIC50 in experiment [1] is 7.23; in experiment [2], 6.31.

On to `CCC(c1ccc(F)c(Cl)c1)n1ncc2nc(-n3cc(C(=O)O)cn3)nc(O)c21` (single isomer, unassigned) [Example 338], for which the pIC50 in experiment [1] is 7.55; in experiment [2], 6.38.

As to `CCC(c1ccc(Cl)cc1F)n1ncc2nc(-n3cc(C(=O)O)cn3)nc(O)c21` (stereo not drawn) [Example 350], the pIC50 in experiment [1] was 7.31; in experiment [2], 6.28.

Regarding `CC(C)CC(CC(C)C)n1ncc2nc(-n3cc(C(=O)O)cn3)nc(O)c21` [Example 490], the pIC50 in experiment [1] was 7.03; in experiment [2], 5.96.

As for `CC1CCCC(n2ncc3nc(-n4cc(C(=O)O)cn4)nc(O)c32)C1` (single isomer, unassigned) [Example 399], the results for the pIC50 in experiment [1] and in experiment [2] were 7.27 and 6.23, respectively.

In the case of `CCC(c1ccc(Cl)cc1F)n1ncc2nc(-n3cc(C(=O)O)cn3)nc(O)c21` (single isomer, unassigned) [Example 351], the negative logarithm of the IC50 (pIC50) in experiment [1] is 7.62; in experiment [2] it was 6.68.

On to `O=C(O)c1cnn(-c2nc(O)c3c(cnn3C[C@H]3CCN(c4cccc(Cl)c4)C3)n2)c1` [Example 430], for which the negative logarithm of the IC50 (pIC50) in experiment [1] is 7.72; in experiment [2] it was 6.62.

Take `CC(C)C(c1cc(F)cc(F)c1)n1ncc2nc(-n3cc(C(=O)O)cn3)nc(O)c21` (stereo not drawn) [Example 360]: the results for the negative-log IC50 (pIC50) in experiment [1] and in experiment [2] were 7.19 and 6.11, respectively.

For `O=C(O)c1cnn(-c2nc(O)c3c(cnn3CC3CCN(Cc4ccc(F)cc4)CC3)n2)c1` [Example 2, 1-(1-{[1-(4-fluorobenzyl)piperidin-4-yl]methyl}-7-hydroxy-1H-pyrazolo[4,3-d]pyrimidin-5-yl)-1H-pyrazole-4-carboxylic acid hydrochloride], the results for the pIC50 in experiment [1] and in experiment [2] were 7.08 and 5.96, respectively.

For the compound `C[C@@H](c1cc(C(F)(F)F)cc(C(F)(F)F)c1)n1ncc2nc(-n3cc(C(=O)O)cn3)nc(O)c21` [Example 272], the pIC50 in experiment [1] was 7.10; in experiment [2] it was 6.01.

On to `CCC(c1ccc(F)c(F)c1)n1ncc2nc(-n3cc(C(=O)O)cn3)nc(O)c21` (single isomer, unassigned) [Example 331], for which the pIC50 in experiment [1] is 7.72; in experiment [2] it was 6.38.

For `O=C(O)c1cnn(-c2nc(O)c3c(n2)c(Cl)nn3CC2CCCC2)c1` [Example 221], the pIC50 in experiment [1] was 7.36; in experiment [2], 6.17.

With `Cc1ccc(F)cc1[C@H](C)n1ncc2nc(-n3cc(C(=O)O)cn3)nc(O)c21` [Example 287], the pIC50 in experiment [1] was 7.32; in experiment [2] it was 6.08.

As for `CCC(c1cc(F)cc(Cl)c1)n1ncc2nc(-n3cc(C(=O)O)cn3)nc(O)c21` (single isomer, unassigned) [Example 340], the pIC50 in experiment [1] is 7.80; in experiment [2], 6.52.

`CC(C)C(c1ccc(C(F)(F)F)cc1)n1ncc2nc(-n3cc(C(=O)O)cn3)nc(O)c21` (stereo not drawn) [Example 356]: the pIC50 in experiment [1] is 7.28; in experiment [2], 6.15.

For the compound `C[C@@H](c1ccc2c(c1)CCC2)n1ncc2nc(-n3cc(C(=O)O)cn3)nc(O)c21` [Example 289], the pIC50 in experiment [1] is 7.52; in experiment [2], 6.68.

Regarding `O=C(O)c1cnn(-c2nc(O)c3c(cnn3CCCOc3ccc(Cl)cc3)n2)c1` [Example 184], the pIC50 is 8.00 in experiment [1] and 6.44 in experiment [2].

As to `O=C(O)c1cnn(-c2nc(O)c3c(cnn3Cc3ccc(-c4ccc(F)cc4F)cc3F)n2)c1` [Example 82], the pIC50 in experiment [1] is 7.49; in experiment [2] it was 6.89.

For `CCC1CCCC(n2ncc3nc(-n4cc(C(=O)O)cn4)nc(O)c32)C1` (stereo not drawn) [Example 413], the pIC50 in experiment [1] was 7.38; in experiment [2], 6.17.

For `CC1(C)CCCC(n2ncc3nc(-n4cc(C(=O)O)cn4)nc(O)c32)C1` (single isomer, unassigned) [Example 412], the figures for the pIC50 in experiment [1] and in experiment [2] were 7.37 and 6.23, respectively.

On to `COc1ccc([C@H](C)n2ncc3nc(-n4cc(C(=O)O)cn4)nc(O)c32)cc1` [Example 260], for which the pIC50 is 7.32 in experiment [1] and 6.02 in experiment [2].

For the compound `Cc1ccc(Cl)cc1C(C)n1ncc2nc(-n3cc(C(=O)O)cn3)nc(O)c21` (stereo not drawn) [Example 311], the pIC50 is 7.17 in experiment [1] and 6.11 in experiment [2].

Consider `C[C@@H](c1cccc(F)c1)n1nc(C2CC2)c2nc(-n3cc(C(=O)O)cn3)nc(O)c21` [Example 458], for which the pIC50 in experiment [1] is less than 6.52; in experiment [2] it was 5.96.

In the case of `CC(C)[C@H]1CC[C@H](C)[C@H](n2ncc3nc(-n4cc(C(=O)O)cn4)nc(O)c32)C1` [Example 405], the pIC50 in experiment [1] is 6.96; in experiment [2] it was 6.34.

On to `CC1CC(n2ncc3nc(-n4cc(C(=O)O)cn4)nc(O)c32)CC(C)(C)C1` (single isomer, unassigned) [Example 410], for which the results for the negative logarithm of the IC50 (pIC50) in experiment [1] and in experiment [2] were 7.38 and 6.37, respectively.

As for `CCC(c1ccc(Cl)cc1)n1ncc2nc(-n3cc(C(=O)O)cn3)nc(O)c21` (stereo not drawn) [Example 322], the pIC50 is 7.32 in experiment [1] and 6.74 in experiment [2].

In the case of `CC(C)c1ccccc1-c1ccc(Cn2ncc3nc(-n4cc(C(=O)O)cn4)nc(O)c32)cc1` [Example 59], the pIC50 in experiment [1] is 7.54; in experiment [2], 7.02.
